Reference: patent publication US8835644B2, “Broad spectrum benzothiophene-nitrothiazolide and other antimicrobials” (University of Virginia Patent Foundation, priority 2009, dated 2014)
In brackets after ≈: the same amount, converted by molar mass. Where two headings read alike, the source gives them in different places. Marks after values point to notes of the source that are not given here.

Assays:
C. difficile [1] = assay: MIC by agar dilution, C. difficile; type: cell-based, Clostridium difficile
Method: A standard broth dilution protocol was used in 96 well microplates containing a standard dilution of the microorganism to be tested in 100 microliters of the appropriate medium. Appropriate medium: E. coli, LB medium; Staphylococcus strains, Trypticase Soy; and for H. pylori and C. jejuni, Brain Heart Infusion. The compounds to be tested were set at 32 μg/ml in 200 microliters in well one and then serially diluted to provide a range from 32 to 0.06. The wells were scored visually at 24 h. The well where there was no growth was recorded as the MIC. […]
(§1) Representative compounds of the invention were tested in a series of assays against a series of organisms as described above. […] The organisms tested include, C. difficile, H. pylori, C. jejuni, MRSA, S. epidermidis, and E. coli. S. epidermidis and E. coli were tested in the plank and biofilm assay. A disk diffusion assay was also used for C. difficile. Direct PFOR enzyme assays were also performed. All analogues and derivatives were not tested on every organism in every type of assay (the “-” in each table means that it was not tested).

C. difficile [2] = assay: Disk diffusion (Kirby Bower), C. difficile; type: cell-based, Clostridium difficile; conditions: for Disk Diff (%) C. difficile: Nitazoxanide = 100; for Disk Diffusion (%) C. difficile: zone of inhibited growth as relative ratio to the zone for NTZ
Summary of the method: (§2)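 Planktonic E. coli (LB) and S. epidermidis (Trypticase Soy), plus C. jejuni (Brain Heart Infusion), were exposed to a dilution series starting at 32 μg/ml. The C. difficile values are anaerobic zone ratios against NTZ.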

S. epidermidis biofilm = S. epidermidis biofilm assay (activity tables); type: cell-based, Staphylococcus epidermidis; conditions: for MIC S. epidermidis Biofilm: Furan analogues table
Summary of the method: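 Overnight TSB cultures diluted to OD600 0.01 and grown static with compound (triplicate) at 37° C for 16 h; turbidity recorded for growth. Biofilm: washed wells ethanol-fixed, stained with 0.5% crystal violet, A570 read before and after 95% ethanol extraction; mean ± SD.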

H. pylori = assay: MIC testing by broth dilution, H. pylori; type: cell-based, Helicobacter pylori
Summary of the method: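 Helicobacter pylori was tested using a standard broth dilution method in 96 well microplates, each well holding a standard dilution of the organism in 100 microliters of Brain Heart Infusion. Compounds started at 32 μg/ml in 200 microliters in the first well and were serially diluted from 32 to 0.06. Wells were read visually at 24 h, and the MIC was the well with no growth.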

MRSA = assay: MIC testing by broth dilution, MRSA; type: cell-based, Staphylococcus aureus
Summary of the method: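 Values are broth-dilution MICs, defined as the well showing no growth on visual reading after 24 h; the tested range was 32 to 0.06 μg/ml, in organism-specific media (LB, Trypticase Soy, Brain Heart Infusion). The C. difficile entries come instead from anaerobic Kirby-Bauer disk zones, normalised to NTZ.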

E. coli = assay: MIC testing by broth dilution, E. coli plank; type: cell-based, Escherichia coli
Summary of the method: as §2

S. epidermidis = assay: MIC testing by broth dilution, S. epidermidis plank; type: cell-based, Staphylococcus epidermidis
Summary of the method: as §2

C. jejuni = assay: MIC testing by broth dilution, C. jejuni; type: cell-based, Campylobacter jejuni
Summary of the method: as §2

E. coli biofilm = E. coli biofilm assay (activity tables); type: cell-based, Escherichia coli
Summary of the method: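 E. coli strain 042 inoculated 1:100 with NTZ-containing medium and grown statically at 37 °C for 24 h. Growth measured by turbidity or plate counts (cfu/ml); biofilm stained with 0.5% crystal violet and read at 570 nm; triplicate, mean ± SD.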

[3] = test system: PFOR (pyruvate ferredoxin oxidoreductase); assay: Direct PFOR enzyme assay; type: biochemical
Method: as §1

[4] = Furan analogues table, read-out: MIC H. pylori
[5] = Furan analogues table, read-out: MIC MRSA
[6] = planktonic, Furan analogues table, read-out: MIC E. coli Plank
[7] = planktonic, Furan analogues table, read-out: MIC S. epidermidis Plank
[8] = Furan analogues table, read-out: MIC C. jejuni
[9] = biofilm, Furan analogues table, read-out: MIC E. coli Biofilm
[10] = 2-amino-3,5-dinitrothiophene analogues table
[11] = 2-amino-3,5-dinitrothiophene analogues table, read-out: MIC H. pylori
[12] = 2-amino-3,5-dinitrothiophene analogues table, read-out: MIC MRSA
[13] = * biphasic initial inhibition followed by uninhibited rate, ** caused some precipitant in extract
[14] = planktonic, 2-amino-3,5-dinitrothiophene analogues table, read-out: MIC E. coli Plank
[15] = planktonic, 2-amino-3,5-dinitrothiophene analogues table, read-out: MIC S. epidermidis Plank
[16] = 2-amino-3,5-dinitrothiophene analogues table, read-out: MIC C. jejuni
[17] = broth dilution, Brain Heart Infusion, 24 h, read-out: MIC (μM) H. pylori
[18] = broth dilution, Trypticase Soy, 24 h, read-out: MIC (μM) MRSA
[19] = broth dilution, LB medium, 24 h, read-out: MIC (μM) E. coli Plank
[20] = broth dilution, Trypticase Soy, 24 h, read-out: MIC (μM) S. epidermidis Plank
[21] = broth dilution, Brain Heart Infusion, 24 h, read-out: MIC (μM) C. jejuni
[22] = biofilm, read-out: MIC (μM) E. coli Biofilm

Structure (SMILES) | MIC S. epidermidis Biofilm (S. epidermidis biofilm) [µM] | MIC (H. pylori; [4]) [µM] | MIC (MRSA; [5]) [µM] | MIC (E. coli; [6]) [µM] | MIC (S. epidermidis; [7]) [µM] | MIC (C. jejuni; [8]) [µM] | MIC (E. coli biofilm; [9]) [µM] | MIC (μM) S. epidermidis Biofilm (S. epidermidis biofilm) [µM] | MIC (H. pylori; [17]) [µM] | MIC (MRSA; [18]) [µM] | PFOR inhibition relative to nitazoxanide (=100) [3] | MIC (E. coli; [19]) [µM] | MIC (S. epidermidis; [20]) [µM] | MIC (C. jejuni; [21]) [µM] | other results
O=C(Nc1ncc([N+](=O)[O-])s1)c1ccc([N+](=O)[O-])o1 [VPC16b1007] | 56.3 (≈ 16 µg/mL) | 21.1 (≈ 6 µg/mL) | 112.6 (≈ 32 µg/mL) | 14.1 (≈ 4.01 µg/mL) | 28.1 (≈ 7.99 µg/mL) | 7.0 (≈ 1.99 µg/mL) | 26.4 (≈ 7.5 µg/mL) | – | – | – | – | – | – | – | MIC (C. difficile [1]; Furan analogues table, read-out: MIC C. difficile): 28.2 µM (≈ 8.01 µg/mL); Disk Diff (%) C. difficile (C. difficile [2]; Furan analogues table): 102 ± 8%
O=C(Nc1sc([N+](=O)[O-])cc1[N+](=O)[O-])c1cccc(C(F)(F)F)c1 [VPC16b1092] | – | – | – | – | – | – | – | – | – | – | – | – | – | – | Disk Diff (%) C. difficile (C. difficile [2]; [10]): 59%; MIC (H. pylori; [11]): 0.5 µM (≈ 0.181 µg/mL); MIC (MRSA; [12]): 1.4 µM (≈ 0.506 µg/mL); PFOR inhibition relative to nitazoxanide (=100) [3, 13]: 87** %; MIC (E. coli; [14]): 88.6 µM (≈ 32 µg/mL); MIC (S. epidermidis; [15]): 0.2 µM (≈ 0.0723 µg/mL); MIC (C. jejuni; [16]): 2.1 µM (≈ 0.759 µg/mL)
O=C(Nc1sc([N+](=O)[O-])cc1[N+](=O)[O-])c1cccs1 [VPC16b1093, N-(3,5-Dinitrothiophen-2-yl)thiophene-2-carboxamide] | – | – | – | – | – | – | – | – | – | – | – | – | – | – | Disk Diff (%) C. difficile (C. difficile [2]; [10]): 43%; MIC (H. pylori; Helicobacter pylori, read-out: MIC H. pylori): 2.5 µM (≈ 0.748 µg/mL); MIC (MRSA; Staphylococcus aureus, MRSA, read-out: MIC MRSA): 26.7 µM (≈ 7.99 µg/mL); PFOR inhibition relative to nitazoxanide (=100) [3, 13]: 143%; MIC (E. coli; Escherichia coli, read-out: MIC E. coli Plank): 107 µM (≈ 32 µg/mL); MIC (S. epidermidis; Staphylococcus epidermidis, read-out: MIC S. epidermidis Plank): 13.4 µM (≈ 4.01 µg/mL); MIC (C. jejuni; Campylobacter jejuni, read-out: MIC C. jejuni): 1 µM (≈ 0.299 µg/mL)
O=C(Nc1sc([N+](=O)[O-])cc1[N+](=O)[O-])c1ccoc1 [VPC16b1094] | – | – | – | – | – | – | – | – | – | – | – | – | – | – | Disk Diff (%) C. difficile (C. difficile [2]; [10]): 53%; MIC (H. pylori; [11]): 2.7 µM (≈ 0.765 µg/mL); MIC (MRSA; [12]): 56.5 µM (≈ 16 µg/mL); PFOR inhibition relative to nitazoxanide (=100) [3, 13]: 126* %; MIC (E. coli; [14]): 113.0 µM (≈ 32 µg/mL); MIC (S. epidermidis; [15]): 28.2 µM (≈ 7.99 µg/mL); MIC (C. jejuni; [16]): 0.4 µM (≈ 0.113 µg/mL)
N#Cc1ccc(C(=O)Nc2ncc([N+](=O)[O-])s2)cc1 [VPC161086] | – | – | – | – | – | – | – | 4.6 (≈ 1.26 µg/mL) | 9.1 (≈ 2.5 µg/mL) | 14.6 (≈ 4 µg/mL) | 74% | 87.5 (≈ 24 µg/mL) | 21.9 (≈ 6.01 µg/mL) | 43.8 (≈ 12 µg/mL) | MIC (E. coli biofilm; [22]): 58.3 µM (≈ 16 µg/mL)
O=C(Nc1ncc([N+](=O)[O-])s1)c1ccco1 [VPC161124] | 66.9 (≈ 16 µg/mL) | 1.0 (≈ 0.239 µg/mL) | 50.2 (≈ 12 µg/mL) | 133.8 (≈ 32 µg/mL) | 66.9 (≈ 16 µg/mL) | 8.4 (≈ 2.01 µg/mL) | 33.4 (≈ 7.99 µg/mL) | – | – | – | – | – | – | – | Disk Diff (%) C. difficile (C. difficile [2]; Furan analogues table): 100%; PFOR inhibition relative to nitazoxanide (=100) ([3]; Furan analogues table): 82%
O=C(Nc1ncc([N+](=O)[O-])s1)c1cc2ccccc2o1 [VPC161144] | 110.6 (≈ 32 µg/mL) | 0.6 (≈ 0.174 µg/mL) | 57.0 (≈ 16.5 µg/mL) | 110.6 (≈ 32 µg/mL) | 110.6 (≈ 32 µg/mL) | 110.6 (≈ 32 µg/mL) | 110.6 (≈ 32 µg/mL) | – | – | – | – | – | – | – | PFOR inhibition relative to nitazoxanide (=100) ([3]; Furan analogues table): 70%
O=C(Nc1ncc([N+](=O)[O-])s1)c1cc(Br)c(Br)o1 [VPC161164] | 20.2 (≈ 8.02 µg/mL) | 2.8 (≈ 1.11 µg/mL) | 3.8 (≈ 1.51 µg/mL) | 60.5 (≈ 24 µg/mL) | 15.1 (≈ 5.99 µg/mL) | 20.2 (≈ 8.02 µg/mL) | 40.3 (≈ 16 µg/mL) | – | – | – | – | – | – | – | PFOR inhibition relative to nitazoxanide (=100) ([3]; Furan analogues table): 56%
O=C(Nc1ncc([N+](=O)[O-])s1)c1ccc(F)cc1 [VPC161167, 4-Fluoro-N-(5-nitrothiazol-2-yl)benzamide] | – | – | – | – | – | – | – | 29.9 (≈ 7.99 µg/mL) | – | – | 99% | – | – | – | Disk Diffusion (%) C. difficile (C. difficile [2]): 89%; MIC (H. pylori; Helicobacter pylori, 24 h, read-out: MIC (μM) H. pylori): 0.9 µM (≈ 0.241 µg/mL); MIC (MRSA; Staphylococcus aureus, MRSA, 24 h, read-out: MIC (μM) MRSA): 8.4 µM (≈ 2.24 µg/mL); MIC (E. coli; Escherichia coli, 24 h, read-out: MIC (μM) E. coli Plank): 120 µM (≈ 32 µg/mL); MIC (S. epidermidis; Staphylococcus epidermidis, 24 h, read-out: MIC (μM) S. epidermidis Plank): 15 µM (≈ 4.01 µg/mL); MIC (C. jejuni; Campylobacter jejuni, 24 h, read-out: MIC (μM) C. jejuni): 2.8 µM (≈ 0.748 µg/mL); MIC (E. coli biofilm; Escherichia coli, read-out: MIC (μM) E. coli Biofilm): 120 µM (≈ 32 µg/mL)
O=C(Nc1ncc([N+](=O)[O-])s1)c1ccc(C(=O)C(F)(F)F)cc1 [VPC161175] | – | – | – | – | – | – | – | 92.7 (≈ 32 µg/mL) | 4.3 (≈ 1.48 µg/mL) | 92.7 (≈ 32 µg/mL) | – | 92.7 (≈ 32 µg/mL) | 92.7 (≈ 32 µg/mL) | 69.5 (≈ 24 µg/mL) | MIC (C. difficile [1]; agar dilution, anaerobic, Wilkins Chalgrin agar, read-out: MIC (μM) C. difficile): 23.2 µM (≈ 8.01 µg/mL); MIC (E. coli biofilm; [22]): 92.7 µM (≈ 32 µg/mL)
O=C(C=Cc1ccccc1)Nc1ncc([N+](=O)[O-])s1 [VPC161200] | – | – | – | – | – | – | – | 14.5 (≈ 3.99 µg/mL) | 0.3 (≈ 0.0826 µg/mL) | 116.2 (≈ 32 µg/mL) | 93% | 116.2 (≈ 32 µg/mL) | 29.1 (≈ 8.01 µg/mL) | 2.7 (≈ 0.743 µg/mL) | MIC (E. coli biofilm; [22]): 116.2 µM (≈ 32 µg/mL)
O=C(Nc1nc(Cl)c([N+](=O)[O-])s1)c1ccccc1 [VPC162087] | – | – | – | – | – | – | – | – | 8.8 (≈ 2.5 µg/mL) | 112.8 (≈ 32 µg/mL) | 107% | 112.8 (≈ 32 µg/mL) | 35.2 (≈ 9.99 µg/mL) | 7.1 (≈ 2.01 µg/mL) | Disk Diffusion (%) C. difficile (C. difficile [2]): 66%
O=C(Nc1nc(Cl)c([N+](=O)[O-])s1)c1cccc(C(F)(F)F)c1 [VPC162088] | – | – | – | – | – | – | – | – | 5.7 (≈ 2 µg/mL) | 11.4 (≈ 4.01 µg/mL) | 49** % | 91.0 (≈ 32 µg/mL) | 8.5 (≈ 2.99 µg/mL) | 34.1 (≈ 12 µg/mL) | Disk Diffusion (%) C. difficile (C. difficile [2]): 76%
